Results: publication PMC7531601, “Exploiting Lactoferricin (17–30) as a Potential Antimicrobial and Antibiofilm Candidate Against Multi-Drug-Resistant Enteroaggregative Escherichia coli” (Frontiers in Microbiology, 2020)
Like-named read-outs stand apart in the source and are kept apart here. Ends that are not written are not given here.

Columns and labels:
[1] = test system: preformed (48 h) MDR-EAEC biofilm; settings: preformed (48 h) biofilm of MDR-EAEC strains
Experimental: The MBEC of Lfcin (17–30) was determined against the preformed (48 h) MDR-EAEC biofilm ([Ceri et al., 1999]). MBEC value is the lowest concentration of Lfcin (17–30) that prevented the MDR-EAEC re-growth. This MBEC value of Lfcin (17–30) was further used to study the eradication of biofilm formed by MDR-EAEC strains.

[2] = test system: MDR-EAEC isolates
Experimental: Initially, characterization of Lfcin (17–30) was performed by determining its minimum inhibitory concentration (MIC), minimum bactericidal concentration (MBC), in vitro stability assays (high-end temperatures, the physiological concentration of cationic salts and proteases), and in vitro safety assays (sheep erythrocyte hemolysis and secondary cell line cytotoxicity) (Supplementary Files S1–S3). The membrane permeabilization effect of Lfcin (17–30) was assessed by flow cytometry, whereas outer and inner membrane permeability of MDR-EAEC strains treated with 1 × and 2 × MIC levels of Lfcin (17–30) was carried out based on the nitrocefin activity as well as the release of cytoplasmic β-galactosidase activity, respectively (Supplementary File S4). Further, Lfcin (17–30) was evaluated for its antibacterial activity against beneficial lactobacilli (L. acidophilus MTCC 10307 and L. rhamnosus MTCC 1408) (Supplementary File S5).
To explore the utility of Lfcin (17-30) as a therapeutic molecule, in vitro stability was evaluated by exposing it to high-end temperatures, proteases as well as the physiological concentration of salts. In brief, the effect of temperature was investigated by incubating Lfcin (17-30) at 70 °C and 90 °C for 5, 15, and 30 min followed by measuring the MIC value. The effect of proteases (trypsin and proteinase-K) on the antimicrobial activity of Lfcin (17-30) [Protease: AMP- 1:100 (w/w)] was investigated by incubating with the respective protease at 37 °C for 30 sec, 2, 5, 15 and 30 min, followed by inactivating the enzyme at 90 °C for 10 min and measuring the MIC value. The stability of Lfcin (17-30) in the presence of high salt concentrations (150 mM and 2 mM MgCl2) was estimated in regular MH broth. Appropriate controls were included in each experiment.

[3] = MgCl2 (2 mM), regular MH broth, MDR 1
[4] = MgCl2 (2 mM), regular MH broth, MDR 2
[5] = MgCl2 (2 mM), regular MH broth, MDR 3
[6] = NaCl (150 mM), regular MH broth, MDR 1
[7] = NaCl (150 mM), regular MH broth, MDR 2
[8] = NaCl (150 mM), regular MH broth, MDR 3
[9] = peptide incubated at 70°C for 5 min, MDR 1
[10] = peptide incubated at 70°C for 5 min, MDR 2
[11] = peptide incubated at 70°C for 5 min, MDR 3
[12] = peptide incubated at 70°C for 15 min, MDR 1
[13] = peptide incubated at 70°C for 15 min, MDR 2
[14] = peptide incubated at 70°C for 15 min, MDR 3
[15] = peptide incubated at 70°C for 30 min, MDR 1
[16] = peptide incubated at 70°C for 30 min, MDR 2
[17] = peptide incubated at 70°C for 30 min, MDR 3
[18] = peptide incubated at 90°C for 5 min, MDR 1
[19] = peptide incubated at 90°C for 5 min, MDR 2
[20] = peptide incubated at 90°C for 5 min, MDR 3
[21] = peptide incubated at 90°C for 15 min, MDR 1
[22] = peptide incubated at 90°C for 15 min, MDR 2
[23] = peptide incubated at 90°C for 15 min, MDR 3
[24] = peptide incubated at 90°C for 30 min, MDR 1
[25] = peptide incubated at 90°C for 30 min, MDR 2
[26] = peptide incubated at 90°C for 30 min, MDR 3
[27] = proteinase-K 1:100 (w/w), 37°C, 2 min, MDR 1
[28] = proteinase-K 1:100 (w/w), 37°C, 2 min, MDR 2
[29] = proteinase-K 1:100 (w/w), 37°C, 2 min, MDR 3
[30] = proteinase-K 1:100 (w/w), 37°C, 5 min, MDR 1
[31] = proteinase-K 1:100 (w/w), 37°C, 5 min, MDR 2
[32] = proteinase-K 1:100 (w/w), 37°C, 5 min, MDR 3
[33] = proteinase-K 1:100 (w/w), 37°C, 15 min, MDR 1
[34] = proteinase-K 1:100 (w/w), 37°C, 15 min, MDR 2
[35] = proteinase-K 1:100 (w/w), 37°C, 15 min, MDR 3
[36] = proteinase-K 1:100 (w/w), 37°C, 30 min, MDR 1
[37] = proteinase-K 1:100 (w/w), 37°C, 30 min, MDR 2
[38] = proteinase-K 1:100 (w/w), 37°C, 30 min, MDR 3
[39] = trypsin 1:100 (w/w), 37°C, 2 min, MDR 1
[40] = trypsin 1:100 (w/w), 37°C, 2 min, MDR 2
[41] = trypsin 1:100 (w/w), 37°C, 2 min, MDR 3
[42] = trypsin 1:100 (w/w), 37°C, 5 min, MDR 1
[43] = trypsin 1:100 (w/w), 37°C, 5 min, MDR 2
[44] = trypsin 1:100 (w/w), 37°C, 5 min, MDR 3
[45] = trypsin 1:100 (w/w), 37°C, 15 min, MDR 1
[46] = trypsin 1:100 (w/w), 37°C, 15 min, MDR 2
[47] = trypsin 1:100 (w/w), 37°C, 15 min, MDR 3
[48] = trypsin 1:100 (w/w), 37°C, 30 min, MDR 1
[49] = trypsin 1:100 (w/w), 37°C, 30 min, MDR 2
[50] = trypsin 1:100 (w/w), 37°C, 30 min, MDR 3

## FKCRRWQWRMKKLG [Lfcin (17–30)]
[1]
  MBEC: 32 µM
[2]; [3]
  MBC: 32.0 µg/mL
  MIC: 32.0 µg/mL
[2]; [4]
  MBC: 32.0 µg/mL
  MIC: 32.0 µg/mL
[2]; [5]
  MBC: 32.0 µg/mL
  MIC: 32.0 µg/mL
[2]; [6]
  MBC: 32.0 µg/mL
  MIC: 32.0 µg/mL
[2]; [7]
  MBC: 32.0 µg/mL
  MIC: 32.0 µg/mL
[2]; [8]
  MBC: 32.0 µg/mL
  MIC: 32.0 µg/mL
[2]; [9]
  MBC: 32.0 µg/mL
  MIC: 32.0 µg/mL
[2]; [10]
  MBC: 32.0 µg/mL
  MIC: 32.0 µg/mL
[2]; [11]
  MBC: 32.0 µg/mL
  MIC: 32.0 µg/mL
[2]; [12]
  MBC: 32.0 µg/mL
  MIC: 32.0 µg/mL
[2]; [13]
  MBC: 32.0 µg/mL
  MIC: 32.0 µg/mL
[2]; [14]
  MBC: 32.0 µg/mL
  MIC: 32.0 µg/mL
[2]; [15]
  MBC: 32.0 µg/mL
  MIC: 32.0 µg/mL
[2]; [16]
  MBC: 32.0 µg/mL
  MIC: 32.0 µg/mL
[2]; [17]
  MBC: 32.0 µg/mL
  MIC: 32.0 µg/mL
[2]; [18]
  MBC: 32.0 µg/mL
  MIC: 32.0 µg/mL
[2]; [19]
  MBC: 32.0 µg/mL
  MIC: 32.0 µg/mL
[2]; [20]
  MBC: 32.0 µg/mL
  MIC: 32.0 µg/mL
[2]; [21]
  MBC: 32.0 µg/mL
  MIC: 32.0 µg/mL
[2]; [22]
  MBC: 32.0 µg/mL
  MIC: 32.0 µg/mL
[2]; [23]
  MBC: 32.0 µg/mL
  MIC: 32.0 µg/mL
[2]; [24]
  MBC: 32.0 µg/mL
  MIC: 32.0 µg/mL
[2]; [25]
  MBC: 32.0 µg/mL
  MIC: 32.0 µg/mL
[2]; [26]
  MBC: 32.0 µg/mL
  MIC: 32.0 µg/mL
[2]; proteinase-K 1:100 (w/w), 37°C, 0.5 min, MDR 1
  MBC: 16.0 µg/mL
[2]; proteinase-K 1:100 (w/w), 37°C, 0.5 min, MDR 2
  MBC: 32.0 µg/mL
[2]; proteinase-K 1:100 (w/w), 37°C, 0.5 min, MDR 3
  MBC: 4.0 µg/mL
[2]; [27]
  MBC: 16.0 µg/mL
  MIC: 8.0 µg/mL
[2]; [28]
  MBC: 32.0 µg/mL
  MIC: 8.0 µg/mL
[2]; [29]
  MBC: 4.0 µg/mL
  MIC: 4.0 µg/mL
[2]; [30]
  MBC: 16.0 µg/mL
  MIC: 8.0 µg/mL
[2]; [31]
  MBC: 32.0 µg/mL
  MIC: 8.0 µg/mL
[2]; [32]
  MBC: 4.0 µg/mL
  MIC: 4.0 µg/mL
[2]; [33]
  MBC: 16.0 µg/mL
  MIC: 8.0 µg/mL
[2]; [34]
  MBC: 32.0 µg/mL
  MIC: 8.0 µg/mL
[2]; [35]
  MBC: 4.0 µg/mL
  MIC: 4.0 µg/mL
[2]; [36]
  MBC: 8.0 µg/mL
  MIC: 8.0 µg/mL
[2]; [37]
  MBC: 16.0 µg/mL
  MIC: 8.0 µg/mL
[2]; [38]
  MBC: 4.0 µg/mL
  MIC: 2.0 µg/mL
[2]; proteinase-K, protease:AMP 1:100 (w/w), 37°C, 0.5 min, enzyme inactivated 90°C 10 min, MDR 1
  MIC: 8.0 µg/mL
[2]; proteinase-K, protease:AMP 1:100 (w/w), 37°C, 0.5 min, enzyme inactivated 90°C 10 min, MDR 2
  MIC: 8.0 µg/mL
[2]; proteinase-K, protease:AMP 1:100 (w/w), 37°C, 0.5 min, enzyme inactivated 90°C 10 min, MDR 3
  MIC: 4.0 µg/mL
[2]; proteinase-K, judged by MIC and MBC
  stability to protease (proteinase-K): stable
[2]; trypsin 1:100 (w/w), 37°C, 0.5 min, MDR 1
  MBC: 16.0 µg/mL
[2]; trypsin 1:100 (w/w), 37°C, 0.5 min, MDR 2
  MBC: 16.0 µg/mL
[2]; trypsin 1:100 (w/w), 37°C, 0.5 min, MDR 3
  MBC: 16.0 µg/mL
[2]; [39]
  MBC: 16.0 µg/mL
  MIC: 16.0 µg/mL
[2]; [40]
  MBC: 16.0 µg/mL
  MIC: 16.0 µg/mL
[2]; [41]
  MBC: 16.0 µg/mL
  MIC: 16.0 µg/mL
[2]; [42]
  MBC: 16.0 µg/mL
  MIC: 16.0 µg/mL
[2]; [43]
  MBC: 16.0 µg/mL
  MIC: 16.0 µg/mL
[2]; [44]
  MBC: 16.0 µg/mL
  MIC: 16.0 µg/mL
[2]; [45]
  MBC: 16.0 µg/mL
  MIC: 16.0 µg/mL
[2]; [46]
  MBC: 16.0 µg/mL
  MIC: 16.0 µg/mL
[2]; [47]
  MBC: 32.0 µg/mL
  MIC: 16.0 µg/mL
[2]; [48]
  MBC: 16.0 µg/mL
  MIC: 16.0 µg/mL
[2]; [49]
  MBC: 16.0 µg/mL
  MIC: 16.0 µg/mL
[2]; [50]
  MBC: 32.0 µg/mL
  MIC: 16.0 µg/mL
[2]; trypsin, protease:AMP 1:100 (w/w), 37°C, 0.5 min, enzyme inactivated 90°C 10 min, MDR 1
  MIC: 16.0 µg/mL
[2]; trypsin, protease:AMP 1:100 (w/w), 37°C, 0.5 min, enzyme inactivated 90°C 10 min, MDR 2
  MIC: 16.0 µg/mL
[2]; trypsin, protease:AMP 1:100 (w/w), 37°C, 0.5 min, enzyme inactivated 90°C 10 min, MDR 3
  MIC: 16.0 µg/mL
[2]; trypsin, judged by MIC and MBC
  stability to protease (trypsin): stable
